Results published in patent US5962524A, “Depigmenting composition” (Caster, priority 1997, dated 1999).

What was measured:
[1] = tested on: tyrosinase in melanocytes of human skin explants; test: Depigmenting power in vitro on skin explants (histological evaluation of melanocyte coloration); format: cell-based; conditions: for tyrosinase activity: 15 hours at 37° C., 0.005 M L-DOPA
Protocol: The inhibitory activity of diethyl acetone-α,α'-dioxalate on tyrisonase in melanocytes was evaluated by a histological study on skin explants.
After thawing and fixing for 30 minutes in 10% (w/v) formaldehyde solution, human skin explants obtained from an abdominoplasty are incubated for 15 hours at 37° C. in the presence of 0.005 M of L-DOPA and of the test products.
The diethyl acetone-α,α'-dioxalate is used at concentrations of 0.5%, 1% and 2% (w/v) in a 10% (v/v) solution of DMSO in water.
Control explants incubated only in the presence of 0.005 M of L-DOPA are prepared in parallel.
For the histological examination, 4 μm thick slices are taken from explants included in paraffin and the slices are stained with cresyl violet.
Optical microscopy photographs in white light allow a visual evaluation of the coloration of the melanocytes reflecting the tyrosinase activity.

[2] = tested on: tyrosinase; test: Inhibition of the L-DOPA-tyrosinase reaction, revealed by thin layer chromatography; format: biochemical; conditions: 10 μl of a 1% solution in ethanol on silica gel plate; L-DOPA 1 M, tyrosinase 238 IU/ml
Protocol: 10 μl of a 1% solution of diethyl acetone-α,α'-dioxalate in ethanol (at 96%) is deposited onto G60 silica gel plates. The migration solvent is a butanol/water/acetic acid mixture (4/1/1, v/v/v) which is migrated to a height of 10 cm. After drying, an L-DOPA solution (1 M) is sprayed over the entire plate, followed by a tyrosinase solution (238 IU/ml). […] This white spot is due to the absence of tyrosinase activity converting the L-DOPA substrate into dopaquinone, the molecule which spontaneously converts into a brown pigment (brown background) in the presence of light.

[3] = tested on: tyrosinase; test: Inhibition of the tyrosine-tyrosinase reaction, spectrophotometric assay of melanin (absorbance at 477 nm); format: biochemical
Protocol: This is a spectrophotometric assay (absorbance at 477 nm) of the melanin produced in vitro by tyrosinase from the tyrosine substrate. […] 2.0 ml of bis Tris buffer (0.1 M, pH 6.5) and 5.0 ml of tyrosine stock solution are added to 0 ml, 1.2 ml, 2.0 ml and 2.5 ml of tyrosinase solution and the mixtures are each completed with water to a total volume of 10.0 ml. These mixtures are incubated for 1 hour and 30 minutes at 37° C. on a water bath and are then rapidly cooled to 4° C. Measurement of the absorbance of the solutions at λ=477 nm relative to a solution free of tyrosinase makes it possible to plot a calibration curve characterized by the curve equation y=0.813×+1.27×10^-3 and by a correlation coefficient equal to 0.999. The following solutions are then prepared: Control solution (100% tyrosinase activity): Solution to be ascertained: These two solutions are incubated for 1 hour 30 minutes on a water bath at 37° C. The solutions are rapidly cooled to 4° C. and the absorbance at 477 nm is then read, taking a blank free of tyrosinase as reference.

[4] = tested on: tail pigmentation of black mice; test: Depigmenting power in vivo on the tails of black mice (lightness parameter L*); conditions: concentration ten times as great increases the efficacy by a factor of two
Protocol: L 908/1). Composition 1: gel containing 99.0% of liposomes containing a 0.5% dose of diethyl acetone-α,α'-dioxalate Composition 2: emulsion containing 10.0% of liposomes containing a 0.5% dose of diethyl acetone-α,α'-dioxalate Reference product: composition containing 2% hydroquinone Each composition is applied daily for 28 days to the tail of four black mice. For each mouse, the lightness parameter L* is measured on day D0, D15 and D28 using a chromameter.

[5] = Oral toxicity in rats (LD50); conditions: rat, in vivo, administered orally to rats, read-out: 50% lethal dose (LD50)
Protocol: The evaluation of the toxicity of the active principle of the present invention, administered orally to rats, gives 50% lethal dose values (LD50) of greater than 2000 mg/kg. Diethyl acetone-α,α'-dioxalate is thus not classed as a risk product.

Oc1ccc(O)cc1 [hydroquinone, reference compound]
tyrosinase activity ([1]; 1.1% (w/v) in 10% DMSO): 0

CCOC(=O)C(O)=CC(=O)C=C(O)C(=O)OCC [diethyl acetone-α,α'-dioxalate]
inhibition of the DOPA-tyrosinase reaction (white band on brown background) [2]: effectively inhibits the DOPA-tyrosinase reaction
in vitro production of melanin by tyrosinase from L-tyrosine ([3]; 2.58% solution in alcohol): effectively inhibits the in vitro production of melanin
Absorbance at 477 nm solution to be assayed, mean ([3]; mean of five tests, 2.0 ml of 2.58% solution in alcohol, 1 h 30 min at 37° C., control mean ≈1.16): ≈ 0
Absorbance at 477 nm solution to be assayed ([3]; single tests 1-5, 2.0 ml of 2.58% solution in alcohol, 1 h 30 min at 37° C., control solution 1.16-1.23): ≈ 0
tyrosinase activity ([1]; 0.5% (w/v) in 10% DMSO): 0
tyrosinase activity ([1]; 1.0% (w/v) in 10% DMSO): 0
tyrosinase activity ([1]; 2.0% (w/v) in 10% DMSO): 0
inhibition of the tyrosinase activity in skin explants ([1]; tested at 0.5%, 1.0% and 2%): totally inhibits the tyrosinase activity
dose dependence of depigmenting efficacy [4]: acts in a dose-dependent manner
LD50 [5]: > 2000 mg/kg
